Laboratory results as given in patent US12023333B2, “Phenyl-sulfamoyl.benzoyc acids as ERAP1 modulators” (GREY WOLF THERAPEUTICS LIMITED, priority 2019, dated 2024).

Target: T1, Purified ERAP1(37-941)-10His (ERAP1) (Homo sapiens, UniProt Q9NZ08)
T1 construct: Purified ERAP1(37-941)-10His (ERAP1); 10His (C)
Assay: ERAP1 mediated hydrolysis of an amide substrate measured in a biochemical system (10-mer decapeptide substrate)
Settings: 10-mer substrate, 23° C. for 1 h, excitation 279 nm and emission 355 nm; read-out: IC50 vs Decapeptide WRVYEKC(Dnp)ALK-acid (where Dnp is Dinitrophenyl maleimide) (10-mer)
Method: Biological Assay 1: ERAP1 Mediated Hydrolysis of an Amide Substrate Measured in a Biochemical System
1× Assay buffer (AB): 25 mM Bis-tris propane, 0.05% w/v Hydroxypropylmethylcellulose pH 7.75 made with Optima grade water
Decapeptide WRVYEKC(Dnp)ALK-acid (where Dnp is Dinitrophenyl maleimide) (10-mer) L-Leucine 7-amido-4-methylcoumarin (L-AMC)
12.5 μL ERAP1 enzyme in 1×AB was combined with 250 nL test compound in DMSO. 12.5 μL of either 240 μM L-AMC in 1×AB or 100 μM 10-mer in 1×AB was added to the reaction and incubated at 23° C. for 1 h. For detection, plates were read at excitation 365 nm and emission 442 nm (L-AMC) or excitation 279 nm and emission 355 nm (10-mer). Compound IC50 was determined using a 4 parameter equation.

T1 sequence (Q9NZ08 37-941): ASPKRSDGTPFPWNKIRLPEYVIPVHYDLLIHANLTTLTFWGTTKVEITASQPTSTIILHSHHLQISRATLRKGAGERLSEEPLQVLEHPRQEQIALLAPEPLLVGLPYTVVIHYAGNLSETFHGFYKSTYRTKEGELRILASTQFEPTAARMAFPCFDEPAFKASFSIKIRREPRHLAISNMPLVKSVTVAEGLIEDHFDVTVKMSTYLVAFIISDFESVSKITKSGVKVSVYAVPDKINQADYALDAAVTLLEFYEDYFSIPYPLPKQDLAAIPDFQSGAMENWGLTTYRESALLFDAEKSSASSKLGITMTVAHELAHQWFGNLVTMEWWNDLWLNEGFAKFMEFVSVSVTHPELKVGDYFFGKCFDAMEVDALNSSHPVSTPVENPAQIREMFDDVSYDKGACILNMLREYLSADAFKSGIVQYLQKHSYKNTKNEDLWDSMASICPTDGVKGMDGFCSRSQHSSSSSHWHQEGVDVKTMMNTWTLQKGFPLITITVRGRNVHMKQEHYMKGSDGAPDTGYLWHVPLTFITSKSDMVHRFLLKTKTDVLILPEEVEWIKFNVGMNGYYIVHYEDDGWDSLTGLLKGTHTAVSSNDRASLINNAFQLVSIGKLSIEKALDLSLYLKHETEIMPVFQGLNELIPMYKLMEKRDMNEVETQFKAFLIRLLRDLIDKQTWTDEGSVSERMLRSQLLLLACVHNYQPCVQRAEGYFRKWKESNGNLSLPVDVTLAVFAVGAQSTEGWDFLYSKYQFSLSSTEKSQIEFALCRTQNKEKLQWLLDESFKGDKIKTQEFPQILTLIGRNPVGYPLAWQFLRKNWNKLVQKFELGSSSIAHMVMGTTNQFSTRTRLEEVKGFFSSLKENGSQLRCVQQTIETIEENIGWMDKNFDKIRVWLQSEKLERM

| IC50 [nM] | SMILES |
| --- | --- |
| < 500 | CCc1ccc(C(=O)O)cc1S(=O)(=O)Nc1cc(C(F)(F)F)ccc1-c1ncccc1F [Example 66, 4-ethyl-3-(N-(2-(3-fluoropyridin-2-yl)-5-(trifluoromethyl)phenyl)sulfamoyl)benzoic acid] |
| < 500 | CCc1ccc(C(=O)O)cc1S(=O)(=O)Nc1cc(C(F)(F)F)c(F)cc1-n1cccc1 [Example 130, 4-ethyl-3-(N-(4-fluoro-2-(pyrrol-1-yl)-5-(trifluoromethyl)phenyl)sulfamoyl)benzoic acid] |
| < 500 | O=C(O)c1ccc(C2CC2)c(S(=O)(=O)Nc2cc(C(F)(F)F)ccc2-c2ccc(Cl)s2)c1 [Example 113, 3-(N-(2-(5-chlorothiophen-2-yl)-5-(trifluoromethyl)phenyl)sulfamoyl)-4-cyclopropylbenzoic acid] |
| < 500 | N#Cc1ccc(-c2ccsn2)c(NS(=O)(=O)c2cc(C(=O)O)ccc2C2CC2)c1 [Example 170, 3-(N-(5-cyano-2-(isothiazol-3-yl)phenyl)sulfamoyl)-4-cyclopropylbenzoic acid] |
| < 500 | Cc1oncc1-c1ccc(-n2cccc2)c(NS(=O)(=O)c2cc(C(=O)O)ccc2C2CC2)c1 [Example 194, 4-cyclopropyl-3-(N-(5-(5-methylisoxazol-4-yl)-2-(pyrrol-1-yl)phenyl)sulfamoyl)benzoic acid] |
| < 500 | Cc1oncc1-c1cc(NS(=O)(=O)c2cc(C(=O)O)ccc2C2CC2)c(-c2ccccn2)cc1Cl [Example 193, 3-(N-(4-chloro-5-(5-methylisoxazol-4-yl)-2-(pyridin-2-yl)phenyl)sulfamoyl)-4-cyclopropylbenzoic acid] |
| < 500 | CCc1ccc(C(=O)O)cc1S(=O)(=O)Nc1cc(S(C)(=O)=O)ccc1-c1ccc(C#N)s1 [Example 120, 3-(N-(2-(5-cyanothiophen-2-yl)-5-(methylsulfonyl)phenyl)sulfamoyl)-4-ethylbenzoic acid] |
| < 500 | CCc1ccc(C(=O)O)cc1S(=O)(=O)Nc1cc(C(F)(F)F)ccc1-c1cccs1 [Example 22, 4-ethyl-3-(N-(2-(thiophen-2-yl)-5-(trifluoromethyl)phenyl)sulfamoyl)benzoic acid] |
| < 500 | Cn1nccc1-c1ccc(-n2cccc2)c(NS(=O)(=O)c2cc(C(=O)O)ccc2C2CC2)c1 [Example 197, 4-cyclopropyl-3-(N-(5-(1-methylpyrazol-5-yl)-2-(pyrrol-1-yl)phenyl)sulfamoyl)benzoic acid] |
| < 500 | CCc1ccc(C(=O)O)cc1S(=O)(=O)Nc1cc(S(C)(=O)=O)ccc1-c1ccccc1 [Example 32, 4-ethyl-3-(N-(4-(methylsulfonyl)-[1,1′-biphenyl]-2-yl)sulfamoyl)benzoic acid] |
| < 500 | CCc1ccc(C(=O)O)cc1S(=O)(=O)Nc1cc(C(F)(F)F)c(Cl)cc1-n1cccc1 [Example 131, 3-(N-(4-chloro-2-(pyrrol-1-yl)-5-(trifluoromethyl)phenyl)sulfamoyl)-4-ethylbenzoic acid] |
| < 500 | N#Cc1ccc(-c2cccnc2)c(NS(=O)(=O)c2cc(C(=O)O)ccc2C2CC2)c1 [Example 97, 3-(N-(5-cyano-2-(pyridin-3-yl)phenyl)sulfamoyl)-4-cyclopropylbenzoic acid] |
| < 500 | O=C(O)c1ccc(C2CC2)c(S(=O)(=O)Nc2cc(-c3ccns3)ccc2-c2ccc(F)s2)c1 [Example 147, 4-cyclopropyl-3-(N-(2-(5-fluorothiophen-2-yl)-5-(isothiazol-5-yl)phenyl)sulfamoyl)benzoic acid] |
| < 500 | COc1ccc(C(=O)O)cc1S(=O)(=O)Nc1cc(S(C)(=O)=O)ccc1-c1ccc(F)s1 [Example 105, 3-(N-(2-(5-fluorothiophen-2-yl)-5-(methylsulfonyl)phenyl)sulfamoyl)-4-methoxybenzoic acid] |
| < 500 | COc1ccc(C(=O)O)cc1S(=O)(=O)Nc1cc(C(F)(F)F)ccc1-c1cccs1 [Example 3, 4-methoxy-3-(N-(2-(thiophen-2-yl)-5-(trifluoromethyl)phenyl)sulfamoyl)benzoic acid] |
| < 500 | Cn1ncnc1-c1cc(NS(=O)(=O)c2cc(C(=O)O)ccc2C2CC2)c(-n2cccc2)cc1F [Example 201, 4-cyclopropyl-3-(N-(4-fluoro-5-(1-methyl-1,2,4-triazol-5-yl)-2-(pyrrol-1-yl)phenyl)sulfamoyl)benzoic acid] |
| < 500 | N#Cc1cc(NS(=O)(=O)c2cc(C(=O)O)ccc2C2CC2)c(-c2ccsn2)cc1F [Example 181, 3-(N-(5-cyano-4-fluoro-2-(isothiazol-3-yl)phenyl)sulfamoyl)-4-cyclopropylbenzoic acid] |
| < 500 | O=C(O)c1ccc(C2CC2)c(S(=O)(=O)Nc2cc(-c3ccns3)c(Cl)cc2-c2ccccn2)c1 [Example 191, 3-(N-(4-chloro-5-(isothiazol-5-yl)-2-(pyridin-2-yl)phenyl)sulfamoyl)-4-cyclopropylbenzoic acid] |

| IC50 [nM] | SMILES |
| --- | --- |
| < 500 | COc1ccc(C(=O)O)cc1S(=O)(=O)Nc1cc(C#N)ccc1-c1ccc(C#N)s1 [Example 119, 3-(N-(5-cyano-2-(5-cyanothiophen-2-yl)phenyl)sulfamoyl)-4-methoxybenzoic acid] |
| < 500 | COc1ccc(C(=O)O)cc1S(=O)(=O)Nc1cc(S(C)(=O)=O)ccc1-c1ccc(Cl)s1 [Example 88, 3-(N-(2-(5-chlorothiophen-2-yl)-5-(methylsulfonyl)phenyl)sulfamoyl)-4-methoxybenzoic acid] |
| < 500 | COc1ccc(C(=O)O)cc1S(=O)(=O)Nc1cc(C#N)ccc1-c1cccs1 [Example 62, 3-(N-(5-cyano-2-(thiophen-2-yl)phenyl)sulfamoyl)-4-methoxybenzoic acid] |
| < 500 | COc1ccc(C(=O)O)cc1S(=O)(=O)Nc1cc(C(F)(F)F)ccc1-c1ccc(F)cc1 [Example 12, 3-(N-(4′-fluoro-4-(trifluoromethyl)-[1,1′-biphenyl]-2-yl)sulfamoyl)-4-methoxybenzoic acid] |
| < 500 | Cn1ncnc1-c1cc(NS(=O)(=O)c2cc(C(=O)O)ccc2C2CC2)c(-c2ccccn2)cc1F [Example 186, 4-cyclopropyl-3-(N-(4-fluoro-5-(1-methyl-1,2,4-triazol-5-yl)-2-(pyridin-2-yl)phenyl)sulfamoyl)benzoic acid] |
| < 500 | CCc1ccc(C(=O)O)cc1S(=O)(=O)Nc1cc(C(F)(F)F)ccc1-c1cccn1C [Example 73, 4-ethyl-3-(N-(2-(1-methyl-pyrrol-2-yl)-5-(trifluoromethyl)phenyl)sulfamoyl)benzoic acid] |
| < 500 | CCc1ccc(C(=O)O)cc1S(=O)(=O)Nc1cc(S(C)(=O)=O)ccc1-c1cccs1 [Example 34, 4-ethyl-3-(N-(5-(methylsulfonyl)-2-(thiophen-2-yl)phenyl)sulfamoyl) benzoic acid] |
| < 500 | COc1ccc(C(=O)O)cc1S(=O)(=O)Nc1cc(S(C)(=O)=O)ccc1-c1ccc(C)s1 [Example 85, 4-methoxy-3-(N-(5-(methylsulfonyl)-2-(5-methylthiophen-2-yl)phenyl)sulfamoyl)benzoic acid] |
| < 500 | CCc1ccc(C(=O)O)cc1S(=O)(=O)Nc1cc(-n2cnnn2)ccc1-c1ccccc1 [Example 52, 3-(N-(4-(tetrazol-1-yl)-[1,1′-biphenyl]-2-yl)sulfamoyl)-4-ethylbenzoic acid] |
| < 500 | CCc1ccc(C(=O)O)cc1S(=O)(=O)Nc1cc(C(F)(F)F)ccc1-c1ccccn1 [Example 37, 4-ethyl-3-(N-(2-(pyridin-2-yl)-5-(trifluoromethyl)phenyl)sulfamoyl)benzoic acid] |
| < 500 | CCc1ccc(C(=O)O)cc1S(=O)(=O)Nc1cc(C#N)ccc1-c1cccc(F)c1 [Example 41] |
| < 500 | COc1ccc(C(=O)O)cc1S(=O)(=O)Nc1cc(C(F)(F)F)ccc1-c1ccc(Cl)s1 [Example 87, 3-(N-(2-(5-chlorothiophen-2-yl)-5-(trifluoromethyl)phenyl)sulfamoyl)-4-methoxybenzoic acid] |
| < 500 | CCc1ccc(C(=O)O)cc1S(=O)(=O)Nc1cc(C#N)ccc1-c1cccs1 [Example 43, 3-(N-(5-cyano-2-(thiophen-2-yl)phenyl)sulfamoyl)-4-ethylbenzoic acid] |
| < 500 | O=C(O)c1ccc(C2CC2)c(S(=O)(=O)Nc2cc(-c3ccns3)ccc2-c2ccccn2)c1 [Example 139, 4-cyclopropyl-3-(N-(5-(isothiazol-5-yl)-2-(pyridin-2-yl)phenyl)sulfamoyl)benzoic acid] |
| < 500 | O=C(O)c1ccc(C2CC2)c(S(=O)(=O)Nc2cc(-c3ccns3)c(F)cc2-n2cccc2)c1 [Example 198, 4-cyclopropyl-3-(N-(4-fluoro-5-(isothiazol-5-yl)-2-(pyrrol-1-yl)phenyl)sulfamoyl)benzoic acid] |
| < 500 | CS(=O)(=O)c1ccc(-c2ccc(Cl)s2)c(NS(=O)(=O)c2cc(C(=O)O)ccc2C2CC2)c1 [Example 123, 3-(N-(2-(5-chlorothiophen-2-yl)-5-(methylsulfonyl)phenyl)sulfamoyl)-4-cyclopropylbenzoic acid] |
| < 500 | N#Cc1cc(NS(=O)(=O)c2cc(C(=O)O)ccc2C2CC2)c(-c2cccc(F)c2)cc1Cl [Example 133, 3-(N-(5-chloro-4-cyano-3′-fluoro-[1,1′-biphenyl]-2-yl)sulfamoyl)-4-cyclopropylbenzoic acid] |
| < 500 | COc1ccc(C(=O)O)cc1S(=O)(=O)Nc1cc(C(F)(F)F)ccc1-c1ccc(Cl)cc1 [Example 49, 3-(N-(4′-chloro-4-(trifluoromethyl)-[1,1′-biphenyl]-2-yl)sulfamoyl)-4-methoxybenzoic acid] |
